In patent US12030877B2, “Prostaglandin E synthase inhibitors and methods for utilizing the same” (University of Kentucky Research Foundation, priority 2016, dated 2024):

Biological target: T1, mPGES-1 (Homo sapiens, UniProt O14684)
T1 sequence (O14684 1-152): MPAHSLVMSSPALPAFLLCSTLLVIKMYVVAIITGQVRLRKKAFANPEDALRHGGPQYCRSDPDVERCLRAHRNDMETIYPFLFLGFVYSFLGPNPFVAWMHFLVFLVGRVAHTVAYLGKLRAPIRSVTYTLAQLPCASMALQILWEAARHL
Test: mPGES-1 enzyme activity assay (PGE2 enzyme immunoassay), human enzyme
Type: biochemical
Parameters: made in house; host or cells: FreeStyle 293-F cells, crude microsomal preparation
Settings: IC50 against mPGES-1, Human enzyme, recombinant microsomal enzyme; means ± SD, triplicate
Protocol: (§1) Studies were conducted to characterize the inhibitory activity against recombinant mPGES-1 of the compounds synthesized in accordance with Examples 1-4, and disclosed herein.
(§2) Briefly, FreeStyle 293-F cells were cultured following manufacturer's manual in FreeStyle 293 expression medium on orbit rotate shaker in 8% CO2 incubator at 37° C. Cells were transfected with 1.5 μg/mL of mPGES-1/pcDNA3 construct using FreeStyle Max reagent at a cell density of 1×10^6 for 2 days. Transfected cells were collected, washed, and sonicated in TSES buffer (15 mM Tris-HCl, pH 8.0 plus 0.25 M sucrose, 0.1 mM EDTA and 1 mM DTT) on ice. The broken cells were first centrifuged at 12,500×g for 10 min. The supernatant was further centrifuged at 105,000×g for 1 hr at 4° C. The pellet was washed and homogenized in PBS buffer. The crude microsomal mPGES-1 preparation was aliquoted and stored at −80° C. The crude protein concentration was 8 mg/mL.
(§3) The enzyme activity assays were performed on ice in 1.5 ml microfuge tubes by using the expressed mPGES-1. The reaction mixture contained: 0.2 M Na2HPO4/NaH2PO4, pH 7.2, 10 μL; 0.1 M GSH, 2.5 μL; diluted microsomal enzyme (80 μg/mL), 1 μL; PGH2 (0.31 mM in DMF), 5 μL; 1 μL inhibitor; and H2O in a final reaction volume of 100 μL. PGH2 was stored in dry ice and used to initiate the reaction.
(§4) Compounds were incubated with the enzyme for 15 min at room temperature before the addition of cold PGH2 (1 μM final) to initiate the enzyme reaction. After 30 s, 10 μL of SnCl2 (40 mg/mL) in ethanol was added to stop the reaction. The nonenzymatic conversion of PGH2 to PGE2 was performed in the same buffer devoid of enzyme. The reaction mixture was placed on ice until PGE2 production was determined by the PGE2 enzyme immunoassay as described earlier. IC50 values of the inhibitors were calculated by using the GraphPad Prism 4.0 program. The results are set forth in the tables provided in Examples 7-10.

Row | SMILES | IC50 [nM]
1 | O=C1NC(=O)C(=Cc2ccc(OCCCCC3CCCCC3)c(Br)c2)C(=O)N1 [Compound I-03] | 45 ± 8
2 | Cc1cc(C=C2C(=O)NC(=O)NC2=O)ccc1OCCCCC1CCCCC1 [Compound I-04] | 82 ± 10
3 | O=C1NC(=O)C(=Cc2ccc(OCCCCC3CCCCC3)c(O)c2)C(=O)N1 [Compound I-05] | 116 ± 17
4 | COc1cc(C=C2C(=O)NC(=O)NC2=O)ccc1OCCCCC1CCCCC1 [Compound I-06] | 121 ± 20
5 | O=C1NC(=O)C(=Cc2ccc(OCCCCC3CCCCC3)c([N+](=O)[O-])c2)C(=O)N1 [Compound I-08] | 67 ± 20
6 | O=C1NC(=O)C(=Cc2ccc(OCCCCC3CCCCC3)c(Br)c2)C(=O)N1 [Compound I-22] | 20 ± 4
7 | O=C1NC(=O)C(=Cc2ccc(OCCCCC3CCCCC3)c([N+](=O)[O-])c2)C(=O)N1 [Compound I-23] | 53 ± 14
8 | O=C1NC(=O)C(=Cc2ccc(OCCCC3CCCCC3)c(Cl)c2)C(=O)N1 [Compound I-24] | 110 ± 21
9 | O=C1NC(=O)C(=Cc2ccc(OCCCC3CCCCC3)c(Br)c2)C(=O)N1 [Compound I-25] | 104 ± 25
10 | O=C1NC(=O)C(=Cc2ccc(OCCCC3CCCCC3)c(Cl)c2)C(=O)N1 [Compound I-30] | 78 ± 13
11 | O=C1NC(=O)C(=Cc2ccc(OCCCC3CCCCC3)c(Br)c2)C(=O)N1 [Compound I-31] | 112 ± 13

Same assay, conditions: compound at a concentration of 10 μM; read-out: % inhibition of the compound against mPGES-1, Human enzyme

Row | SMILES | inhibition at 10 µM [%]
12 | CCCCOc1ccc(-c2nn(-c3ccccc3)cc2C=C2C(=O)N(C)C(=O)N(C)C2=O)cc1 [VI-19] | 30
13 | CCCCOc1ccc(-c2nn(-c3ccc(Cl)cc3)cc2C=C2C(=O)N(C)C(=O)N(C)C2=O)cc1 [VI-20] | 29
14 | CCCCCCCCOc1ccc(-c2nn(-c3ccccc3)cc2C=C2C(=O)N(C)C(=O)N(C)C2=O)cc1 [VI-21] | 16
15 | CCCCCCCCOc1ccc(-c2nn(-c3ccc(Cl)cc3)cc2C=C2C(=O)N(C)C(=O)N(C)C2=O)cc1 [VI-22] | 6.8
16 | CCCCCCCCCCOc1ccc(-c2nn(-c3ccccc3)cc2C=C2C(=O)N(C)C(=O)N(C)C2=O)cc1 [VI-23] | 0
17 | CCCCCCCCCCOc1ccc(-c2nn(-c3ccc(Cl)cc3)cc2C=C2C(=O)N(C)C(=O)N(C)C2=O)cc1 [VI-24] | 0
18 | CCOC(=O)/C(C#N)=C\c1cn(-c2ccc(Cl)cc2)nc1-c1ccc(OCC)cc1 [VII-03] | 24
19 | CCCCCCOc1ccc(-c2nn(-c3ccc(Cl)cc3)cc2/C=C(/C#N)C(=O)OCC)cc1 [VII-04] | 37
20 | CCCCOc1ccc(-c2nn(-c3ccccc3)cc2C=C(C#N)C#N)cc1 [VII-22] | 54
21 | CCCCOc1ccc(-c2nn(-c3ccc(Cl)cc3)cc2C=C(C#N)C#N)cc1 [VII-23] | 77
22 | CCCCCCCCOc1ccc(-c2nn(-c3ccccc3)cc2C=C(C#N)C#N)cc1 [VII-25] | 55
23 | CCCCCCCCOc1ccc(-c2nn(-c3ccc(Cl)cc3)cc2C=C(C#N)C#N)cc1 [VII-26] | 52
24 | CCCCCCCCCCOc1ccc(-c2nn(-c3ccccc3)cc2C=C(C#N)C#N)cc1 [VII-27] | 49
25 | CCCCCCCCCCOc1ccc(-c2nn(-c3ccc(Cl)cc3)cc2C=C(C#N)C#N)cc1 [VII-28] | 47

Same assay, conditions: recombinant microsomal enzyme; means ± SD, triplicate; read-out: IC50 against mPGES-1, Human enzyme

Row | SMILES | IC50 [nM]
26 | O=C1NC(=O)C(=Cc2ccc(OCCCCC3CCCCC3)cc2)C(=O)N1 [Compound I-01] | 622 ± 121
27 | O=C1NC(=O)C(=Cc2ccc(OCCCCC3CCCCC3)c(Cl)c2)C(=O)N1 [Compound I-02] | 33 ± 3
28 | CCCCCCOc1ccc(/C=C(\C#N)C(=O)OCC)cc1[N+](=O)[O-] [Compound V-01] | 8740 ± 1170
29 | CCCCCCCOc1ccc(/C=C(\C#N)C(=O)OCC)cc1[N+](=O)[O-] [Compound V-02] | 4820 ± 511
30 | CCCCCCCCOc1ccc(/C=C(\C#N)C(=O)OCC)cc1[N+](=O)[O-] [Compound V-03] | 4750 ± 489
31 | CCCCCOc1ccc(/C=C(\C#N)C(=O)OCC)cc1 [Compound V-07] | 6220 ± 502
32 | CCCCCCOc1ccc(/C=C(\C#N)C(=O)OCC)cc1 [Compound V-08] | 5240 ± 429
33 | CCCCCCCOc1ccc(/C=C(\C#N)C(=O)OCC)cc1 [Compound V-09] | 3520 ± 471
34 | CCCCCCCOc1ccc(/C=C(\C#N)C(N)=O)cc1 [Compound V-11] | 376 ± 31
35 | CCCCCCOc1c(Br)cc(/C=C(\C#N)C(=O)OCC)cc1OC [Compound V-12] | 998 ± 196
36 | CCCCCCCOc1c(Br)cc(/C=C(\C#N)C(=O)OCC)cc1OC [Compound V-14] | 1010 ± 262
37 | CCCCCCCOc1c(Br)cc(/C=C(\C#N)C(N)=O)cc1OC [Compound V-16] | 1300 ± 232
38 | CCCCCCCCOc1c(Br)cc(/C=C(\C#N)C(=O)OCC)cc1OC [Compound V-17] | 1870 ± 350
39 | CCCCCCCCCCCCCCCCCCOc1c(Br)cc(/C=C(\C#N)C(=O)OCC)cc1OC [Compound V-19] | 2270 ± 350
40 | CCCCOc1ccc(/C=C(\C#N)C(=O)OCC)cc1OC [Compound V-21] | 5630 ± 987
41 | CCCCCCOc1ccc(/C=C(\C#N)C(=O)OCC)cc1OC [Compound V-23] | 1450 ± 192
42 | CCCCCCOc1ccc(C=C(C#N)C#N)cc1OC [Compound V-24] | 294 ± 60
43 | CCCCCCOc1ccc(/C=C(\C#N)C(=O)O)cc1OC [Compound V-25] | 242 ± 30
44 | CCCCCCCCCCOc1ccc(/C=C(\C#N)C(=O)OCC)cc1OC [Compound V-26] | 905 ± 177
45 | CCCCCCCCCCOc1ccc(/C=C(\C#N)C(N)=O)cc1OC [Compound V-28] | 4370 ± 915

Row | SMILES | IC50 [nM]
46 | CCCCCCCCCOc1ccc(/C=C(\C#N)C(=O)OCC)cc1OC [Compound V-29] | 2880 ± 687
47 | CCCCCCCCCOc1ccc(/C=C(\C#N)C(N)=O)cc1OC [Compound V-30] | 1100 ± 212
48 | CCCCCCCCCOc1ccc(/C=C(\C#N)C(=O)O)cc1OC [Compound V-31] | 356 ± 123
49 | CCCCCCCOc1ccc(/C=C(\C#N)C(=O)OCC)cc1OC [Compound V-32] | 4280 ± 1400
50 | CCCCCCCOc1ccc(/C=C(\C#N)C(N)=O)cc1OC [Compound V-33] | 2210 ± 450
51 | CCCCCCCOc1ccc(/C=C(\C#N)C(=O)O)cc1OC [Compound V-34] | 531 ± 116
52 | CCCCOc1ccc(/C=C(\C#N)C(=O)O)cc1OC [Compound V-36] | 541 ± 82
53 | CCCCOc1ccc(/C=C(\C#N)C(N)=O)cc1OC [Compound V-37] | 5410 ± 818
54 | CCOC(=O)/C(C#N)=C/c1ccc(OCC2CCCCC2)c(OC)c1 [Compound V-38] | 10800 ± 1040
55 | COc1cc(C=C(C#N)C#N)ccc1OCC1CCCCC1 [Compound V-39] | 1450 ± 152
56 | COc1cc(/C=C(\C#N)C(N)=O)ccc1OCC1CCCCC1 [Compound V-40] | 1460 ± 119
57 | CCCCCOc1ccc(/C=C(\C#N)C(=O)OCC)cc1OC [Compound V-41] | 4140 ± 858
58 | CCCCCOc1ccc(C=C(C#N)C#N)cc1OC [Compound V-42] | 439 ± 104
59 | CCCCCOc1ccc(/C=C/[N+](=O)[O-])cc1OC [Compound V-43] | 2770 ± 577
60 | CCCCCOc1ccc(/C=C(\C#N)C(=O)O)cc1OC [Compound V-44] | 456 ± 42
61 | CCOc1ccc(-c2nn(-c3ccc(Cl)cc3)cc2/C=C2\SC(=O)NC2=O)cc1 [VII-05] | 1590 ± 557
62 | CCCCCCOc1ccc(-c2nn(-c3ccc(Cl)cc3)cc2/C=C2\SC(=O)NC2=O)cc1 [VII-06] | 1390 ± 303
63 | O=C1NC(=O)/C(=C/c2cn(-c3ccccc3)nc2-c2ccccc2)S1 [VII-07] | 4930 ± 1160
64 | CCOc1ccc(-c2nn(-c3ccc(Cl)cc3)cc2/C=C2\SC(=S)NC2=O)cc1 [VII-08] | 1040 ± 293
65 | CCCCCCOc1ccc(-c2nn(-c3ccc(Cl)cc3)cc2/C=C2\SC(=S)NC2=O)cc1 [VII-09] | 1730 ± 666

Biological target: T2, mPGES-1 Mouse enzyme (Mus musculus, UniProt Q9JM51)
T2 construct: made in house; host or cells: FreeStyle 293-F cells, crude microsomal preparation
T2 sequence (Q9JM51 1-153): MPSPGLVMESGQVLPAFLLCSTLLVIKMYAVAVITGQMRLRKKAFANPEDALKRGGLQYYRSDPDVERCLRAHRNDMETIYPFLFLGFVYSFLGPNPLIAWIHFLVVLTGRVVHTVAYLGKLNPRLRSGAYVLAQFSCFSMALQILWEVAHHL
Test: mPGES-1 enzyme activity assay (PGE2 enzyme immunoassay), mouse enzyme
Type: biochemical
Settings: IC50 against mPGES-1, Mouse enzyme, recombinant microsomal enzyme; means ± SD, triplicate
Protocol: as §1, §2, §3, §4

Row | SMILES | IC50 [nM]
66 | O=C1NC(=O)C(=Cc2ccc(OCCCCC3CCCCC3)cc2)C(=O)N1 [Compound I-01] | 7080 ± 627
67 | O=C1NC(=O)C(=Cc2ccc(OCCCCC3CCCCC3)c(O)c2)C(=O)N1 [Compound I-05] | 2900 ± 293
68 | COc1cc(C=C2C(=O)NC(=O)NC2=O)ccc1OCCCCC1CCCCC1 [Compound I-06] | 1460 ± 209

Same assay, conditions: compound at a concentration of 10 μM; read-out: % inhibition of the compound against mPGES-1, Mouse enzyme

Row | SMILES | inhibition at 10 µM [%]
69 | Cc1cc(C=C2C(=O)NC(=O)NC2=O)ccc1OCCCCC1CCCCC1 [Compound I-04] | 25

Same assay, conditions: recombinant microsomal enzyme; means ± SD, triplicate; read-out: IC50 against mPGES-1, Mouse enzyme

Row | SMILES | IC50 [nM]
70 | O=C1NC(=O)C(=Cc2ccc(OCCCCC3CCCCC3)c(Cl)c2)C(=O)N1 [Compound I-02] | 157 ± 31
